Key:
[1] = system: leptin mRNA in 3T3-L1 adipocytes; assay: leptin mRNA expression in 3T3-L1 adipocytes treated with PPARγ agonist (quantitative real-time PCR); format: cell-based, murine; settings: fully-differentiated 3T3-L1 adipocytes, 18 hr treatment, compared with the γ-synuclein mRNA decrease
Experimental: 3T3-L1 Adipocyte Differentiation & PPARγAgonist Studies. Results herein were generated using the samples described in our recently-published studies (1). Briefly, murine 3T3-L1 fibroblasts (ATCC, Manassas, Va.) grown to between 5-9 passages were induced to differentiate into adipocytes using a protocol similar to Farmer et al. (i.e., (22)). Two-day-confluent cells grown in high-glucose (25 mM) DMEM and 10% FBS (37° C., 5% CO2) in 6-well rat tail collagen-coated plates were exposed to differentiation medium containing 10 μg/ml bovine insulin (˜1.6 μM), 1 μM dexamethasone, and 0.5 mM 3-isobutyl-1-methylxanthine (IBMX) for 2 days. […]
Gene Expression Analyses. RNA abundance of γ-synuclein and of other genes of interest were measured in 3T3-L1 adipocyte samples using quantitative real-time PCR, as described in detail previously (1). […] Mouse and human tissue panel samples, and samples derived from non-obese and obese WAT (24) were assayed using a two-step process with preparation of cDNA from total RNA, followed by quantitative real-time PCR. […] Amplification cycle number (Ct) of 18S for each sample was determined using commercial 18S primers and probe (ABI) to correct for template loading differences across all target genes (ΔCt method: ΔCt=sample Ct−18S Ct), and expression values were determined relative to control transcript levels using a mathematical formula as previously described (1). […]

[2] = system: γ-synuclein mRNA in 3T3-L1 adipocytes; assay: γ-synuclein mRNA expression in 3T3-L1 adipocytes treated with PPARγ agonist (quantitative real-time PCR); format: cell-based, murine
Experimental: 3T3-L1 Adipocyte Differentiation & PPARγAgonist Studies. Results herein were generated using the samples described in our recently-published studies (1). Briefly, murine 3T3-L1 fibroblasts (ATCC, Manassas, Va.) grown to between 5-9 passages were induced to differentiate into adipocytes using a protocol similar to Farmer et al. (i.e., (22)). Two-day-confluent cells grown in high-glucose (25 mM) DMEM and 10% FBS (37° C., 5% CO2) in 6-well rat tail collagen-coated plates were exposed to differentiation medium containing 10 μg/ml bovine insulin (˜1.6 μM), 1 μM dexamethasone, and 0.5 mM 3-isobutyl-1-methylxanthine (IBMX) for 2 days. Cells were grown thereafter in maintenance medium (DMEM/10% FBS+2.5 μg/mL insulin). Cell culture media was replaced daily. Proof-of-principle studies tested the ability of the potent non-thiazoladinedione PPARγ agonist GW1929 (23) to regulate γ-synuclein gene expression at various points in the 3T3-L1 adipocyte differentiation and maturation process, as indicated. For these experiments, cells were cultured for the times and doses indicated in media containing vehicle (DMSO; 0.1% by vol.) or GW1929 (0.1% by vol.). RNA was prepared from 3T3-L1 adipocytes using Trizol-based methods for cell culture samples (Ambion, Austin, Tex.). RNA abundance and integrity were checked using a Nanoprop® ND-1000 Spectrophotometer (Nanoprop Technologies, Wilmington, Del.) and an Agilent 2100 bioanalyzer (Agilent, Foster City, Calif.) per manufacturer's instructions.
Gene Expression Analyses. RNA abundance of γ-synuclein and of other genes of interest were measured in 3T3-L1 adipocyte samples using quantitative real-time PCR, as described in detail previously (1). These assays utilized gene-specific TaqMan primers and FAM-MGB labeled probes (Assays-on-Demand®, Applied Biosystems Inc., Foster City, Calif.) and were run in duplicate or triplicate for each sample using an ABI 7900HT instrument. Primers/probe ABI identifiers for human reagents were γ-synuclein (Hs00268306 ml), leptin (Hs00174877 ml), and 11B-hydroxysteroid dehydrogenase (11β-HSD-1; Hs00194153 ml), and for mouse, γ-synuclein (Mm00488345 ml) and others described previously (1). Mouse and human tissue panel samples, and samples derived from non-obese and obese WAT (24) were assayed using a two-step process with preparation of cDNA from total RNA, followed by quantitative real-time PCR. […] Amplification cycle number (Ct) of 18S for each sample was determined using commercial 18S primers and probe (ABI) to correct for template loading differences across all target genes (ΔCt method: ΔCt=sample Ct−18S Ct), and expression values were determined relative to control transcript levels using a mathematical formula as previously described (1). […]

SMILES | leptin mRNA pattern in response to short-term treatment [1] | decrease of γ-synuclein mRNA abundance ([2]; fully-differentiated 3T3-L1 adipocytes, 18 hr treatment, dose-response, vs vehicle (DMSO)) | γ-synuclein expression (direction of change) ([2]; mature fat cells, single dose, short-term (18 hr) exposure) | γ-synuclein mRNA (direction of change) ([2]; pre-adipocytes and immature adipocytes, single dose, short-term (18 hr) exposure) | effective doses required to decrease γ-synuclein and leptin mRNA, compared to GW1929 ([2]; 3T3-L1 adipocytes, data not shown)
CN(CCOc1ccc(C[C@H](Nc2ccccc2C(=O)c2ccccc2)C(=O)O)cc1)c1ccccn1 [GW1929] | paralleled qualitatively | ≤ 50% | decrease | increased | 
Cc1c(C)c2c(c(C)c1O)CCC(C)(COc1ccc(CC3SC(=O)NC3=O)cc1)O2 (centres unmarked) [troglitazone] |  |  |  |  | at least 5 fold

Source: US8110368B1, “Synuclein gamma as a biomarker of obesity and obesity-related disorders” (The United States of America Department of Agriculture, as …, priority 2008, dated 2012)
